Source: a melting point compilation (Tetko et al.)

Structure (SMILES) | melting point
O=C(O)C1(c2cccc(F)c2)CCCCC1 | 135 to 137 °C
CN(C)C(=O)Sc1cccc(CCl)c1 | 44 to 46 °C
CCc1cc(N)on1 | 49 to 51 °C
COc1cc(C=O)ccc1OCc1ccc(Br)cc1 | 74 to 76 °C
CCN(C1CC1)S(=O)(=O)c1c(C)n[nH]c1C | 97 to 99 °C
O=C1NCCCC1Br (configuration not stated) | 49 to 51 °C
CC(C)(C)c1ccc(S(=O)(=O)N2CCNCC2)cc1 | 126 to 128 °C
NS(=O)(=O)CCCF | 45 to 47 °C
Cn1ncc([N+](=O)[O-])c1C(=O)O | 159 to 161 °C
CC(C)Cn1cc(C(=O)O)c2ccccc21 | 151 to 153 °C
O=C(O)CNS(=O)(=O)c1ccc(Cl)cc1 | 177 to 179 °C
FC(F)Oc1cccc2cccnc12 | 64 to 66 °C
CC(C)(C)C(=O)Nc1ccc(C(=O)CCl)cc1 | 132 to 134 °C
O=c1c2ccc(C(F)(F)F)cc2nc2n1CCC2 | 156 to 158 °C
O=C(O)c1ccc(Oc2ccc(F)cc2[N+](=O)[O-])cc1 | 179 to 181 °C
Nc1ccc(N2CCOCC2)cn1 | 143 to 145 °C
Nc1cc(S(=O)(=O)NCCCN2CCOCC2)ccc1Cl | < 17 °C
NS(=O)(=O)c1cc(Br)cnc1Cl | 119 to 121 °C
COc1ccc(CC#N)c(Cl)c1OC | 55 to 57 °C
Clc1ccc(-c2nnc(CNC3CC3)o2)cc1 | 104 to 106 °C
O=S(=O)(c1ccc(F)cc1)C(F)F | 51 to 53 °C
OCCNc1ccc(Cl)nn1 | 133 to 135 °C
CC(=O)NCCc1ccc(C(C)=O)cc1 | 94 to 96 °C
CC(C)(C)OC(=O)N1CCN(CC(=O)O)C(=O)C1 | 149 to 151 °C

Structure (SMILES) | melting point
Cc1cccc(-c2nc(N)n[nH]2)c1[N+](=O)[O-] | 242 to 244 °C
Cc1nc(S(=O)(=O)Oc2c(F)c(F)c(F)c(F)c2F)sc1C | 98 to 100 °C
NC(=O)Nc1ccc(S(=O)(=O)F)cc1 | 177 to 179 °C
O=c1c2ccccc2nc(S)n1-c1nnc[nH]1 | 234 to 236 °C
COC(=O)c1ccc(C(=O)O)o1 | 194 to 196 °C
CC(C)C(Oc1ccc(Br)cc1)C(=O)O (configuration not stated) | 105 to 107 °C
O=Cc1cnc(N2CCOCC2)s1 | 163 to 165 °C
O=C(O)C1CCC2CCCCC2C1 (configuration not stated) | 57 to 59 °C
ClCc1cn(-c2ccc(Cl)cc2)nn1 | 139 to 141 °C
O=[N+]([O-])c1cc(S(=O)(=O)N2CCCC2)ccc1Cl | 96 to 100 °C
Clc1ccc2nnc(C3CCCO3)n2n1 (configuration not stated) | 139 to 141 °C
N#Cc1sc(-c2cccc(Cl)c2)cc1N | 190 to 192 °C
O=C(O)C(=O)Cc1ccc(Cl)c(Cl)c1 | 169 to 171 °C
Cc1cn2c(n1)CNCC2 | 100 to 102 °C
CN(C)CCCNC(N)=S | 66 to 68 °C
N#Cc1ccc(S(=O)(=O)Cl)c(F)c1 | 61 to 63 °C
Cc1c(C(=O)O)oc2c(Br)cccc12 | 204 to 206 °C
CN(C(=O)CCl)c1nccs1 | 123 to 125 °C
COc1cccc(Cn2ccc3ccc(N)cc32)c1 | 59 to 61 °C
ClCc1cc(Cl)c2c(c1)OCCO2 | 59 to 61 °C
CCS(=O)(=O)c1ccc(Cl)cc1C(=O)O | 104 to 106 °C
NNC(=O)C1CC1 | 92 to 94 °C
Cc1ccc(C(=O)NN)c(O)c1 | 173 to 175 °C
NS(=O)(=O)c1cccc(NC(=O)c2ccc(Cl)cc2)c1 | 93 to 96 °C

Structure (SMILES) | melting point
O=C(O)c1cnn(-c2ccc(Cl)nn2)c1C(F)(F)F | 99 to 101 °C
COc1ccc(S(N)(=O)=O)cc1NC(C)=O | 217 to 219 °C
O=C(NC1CC1)c1ccc(Br)cc1F | 111 to 113 °C
N#Cc1cccc(OC2CCNCC2)c1 | 52 to 54 °C
Cc1sc2ncn(CC(=O)O)c(=O)c2c1C | 229 to 231 °C
COc1cc(N)ccc1S(=O)(=O)Nc1ccc(Cl)cc1Cl | 199 to 201 °C
Cc1nc2ccc(N)cc2o1 | 129 to 131 °C
Cc1cc(O)cc(=O)o1 | 188 to 190 °C
CC(C)(CN)S(=O)(=O)c1ccc(Br)cc1 | 74 to 76 °C
O=C(O)C1CCCN(C(=O)NC2CCCC2)C1 (configuration not stated) | 167 to 169 °C
Cc1cc(Br)c(N)cc1[N+](=O)[O-] | 115 to 117 °C
CC(C)NC(CCO)C1CCCCC1 (configuration not stated) | 35 to 37 °C
CNc1ccc(Cl)nn1 | 194 to 196 °C
Cc1nc(-c2ccc(Cl)nc2)[nH]c(=O)c1C | 263 to 265 °C
N#Cc1cccnc1NCc1cccc(C(=O)O)c1 | 197 to 199 °C
COc1cc(C(C)=O)cc(O)c1OC | 59 to 61 °C
O=C(O)CCNc1ccc(C(F)(F)F)cc1[N+](=O)[O-] | 130 to 134 °C
O=C(CCl)NC(c1ccc(F)cc1)c1cccs1 (configuration not stated) | 124 to 126 °C
CC(=O)c1cccc(OCC(=O)N(C)C)c1 | 93 to 95 °C
CC(C)NC(=O)NC(C)C | 191 to 193 °C
CCOc1ccc(NC(=S)NN)cc1 | 178 to 182 °C
O=c1cc(CCl)occ1O | 166 to 168 °C
CC(=O)N(C)CC(=O)O | 137 to 139 °C
Cc1ccc(C(=O)CCC(=O)O)s1 | 99 to 101 °C

Structure (SMILES) | melting point
CC(=O)Nc1cc(C)c(C)cc1[N+](=O)[O-] | 189 to 191 °C
Nc1cnn(CC(=O)Nc2cccnc2)c1 | 117 to 119 °C
CC(C)(C)OC(=O)N1CC(OS(C)(=O)=O)C1 | 65 to 67 °C
O=C1CCCc2nc(-c3ccc(F)cc3)sc21 | 142 to 144 °C
CS(=O)(=O)c1cc(Br)ccc1[N+](=O)[O-] | 152 to 154 °C
CC(C)(C)OC(=O)N1CCN(CC(O)c2ccco2)CC1 (configuration not stated) | 57 to 59 °C
O=C(O)C1(c2ccc(Cl)c(Cl)c2)CCC1 | 116 to 118 °C
NNS(=O)(=O)c1ccc(Cl)c([N+](=O)[O-])c1 | 126 to 128 °C
Cc1ccc(Cl)c(N)c1C(=O)O | 119 to 121 °C
COc1ccc([N+](=O)[O-])cc1NC(=O)C(C)Cl (configuration not stated) | 131 to 133 °C
ClCc1nc(-c2nc[nH]n2)no1 | 187 to 189 °C
O=S(=O)(Cl)c1csc(-c2ccc(F)cc2)n1 | 75 to 77 °C
CCc1nc(C(=O)O)nn1-c1c(Cl)cccc1Cl | 197 to 199 °C
CN(C)c1nc2sc(C(=O)O)cc2s1 | 205 to 207 °C
O=C(O)C1CCN(C(=O)N2CCCC2)CC1 | 144 to 146 °C
CC(=O)c1ccc(N2CCCS2(=O)=O)cc1 | 137 to 139 °C
NC(=O)c1ccc(N)cc1Cl | 163 to 165 °C
NC(=O)c1ncccc1N | 176 to 178 °C
CCOC(=O)N1CCN(S(=O)(=O)Cl)CC1 | 67 to 69 °C
Cc1cc(C(=O)O)c(C)n1C(C)c1ccccc1 (configuration not stated) | 135 to 137 °C
Nc1nc2c3c(ccc2s1)CCCC3 | 122 to 124 °C
Cc1cc(OCc2ccc(C(=O)NN)cc2)ccc1Cl | 78 to 80 °C
NS(=O)(=O)c1cc(C(F)(F)F)ccc1F | 127 to 129 °C

More lines, now with the values ahead:

melting point | Structure (SMILES)
142 to 144 °C | O=C(O)c1ccc(Cl)cc1-n1cccc1
175 to 177 °C | O=C(O)c1cccc(-c2ncon2)c1
103 to 105 °C | COc1ccc(N2CCC2=O)cc1
311 to 313 °C | O=C1COc2c(cccc2C(=O)O)N1
73 to 75 °C | O=C(CCl)NCC(c1ccc(Cl)cc1Cl)c1c[nH]c2ccccc12 (configuration not stated)
138 to 140 °C | O=C(O)c1ccc(=O)n(CCOc2ccccc2)n1
80 to 84 °C | COC(=O)C(=O)CC(=O)c1ccccc1OC
232 to 234 °C | O=C(O)CCc1nc2ccccc2n1-c1ccccc1
139 to 141 °C | O=C1CC2CCCN2c2ccccc2N1 (configuration not stated)
120 to 122 °C | C#Cc1cccc(NC(=O)CCl)c1
229 to 231 °C | CCn1c(=O)n(CC(=O)O)c2ccccc21
139 to 141 °C | C=CCSc1nc2ccccc2[nH]1
150 to 152 °C | Cc1cc(-n2cccc2)ccc1C(=O)O
155 to 157 °C | O=C(O)C1CC1C(=O)N1CCN(c2ccccc2)CC1 (configuration not stated)
147 to 149 °C | CC1C(=O)NC(=O)N1c1ccccc1 (configuration not stated)
124 to 126 °C | NCc1ccc(-c2nc3ccccc3s2)o1
187 to 189 °C | O=C(O)c1ccccc1C(=O)c1ccc(Cl)c(Cl)c1
56 to 58 °C | COC(=O)C1(C)CCc2ccccc2C1=O (configuration not stated)
108 to 110 °C | O=C1C(Br)CCCN1c1ccccc1Cl (configuration not stated)
133 to 135 °C | CC(C)c1ccccc1Oc1ccccc1C(=O)O
111 to 113 °C | O=C(O)CCOc1ccccc1Br
214 to 216 °C | O=C(O)c1cccc(N2CCOC2=O)c1
66 to 68 °C | CCc1c(C(C)O)oc2ccccc12 (configuration not stated)
65 to 67 °C | CCOCCN1C(=O)C(=O)c2ccccc21

melting point | Structure (SMILES)
158 to 160 °C | NC(=O)Cc1ccccc1F
119 to 121 °C | COc1ccc(Br)c(S(N)(=O)=O)c1
248 to 250 °C | O=C1CCc2cc(C(=O)c3c(F)cccc3F)ccc2N1
178 to 180 °C | Cc1cc(Br)c2c(c1)C(=O)C(=O)N2
90 to 92 °C | CC(C)C(Br)C(=O)N1CCc2ccccc2C1 (configuration not stated)
137 to 139 °C | Nc1nc(-c2ccccc2Cl)co1
92 to 94 °C | N#Cc1ccccc1Oc1ccc(N)cn1
150 to 152 °C | Cc1[nH]ncc1CNc1ccc(O)cc1
53 to 55 °C | O=C(CCl)N1CCSc2ccccc21
176 to 178 °C | O=C(O)c1c2c(nc3ccccc13)C(=Cc1cccs1)CCC2
149 to 151 °C | CC(C)S(=O)(=O)c1ccccc1C(=O)O
113 to 115 °C | NC(C(=O)O)(c1ccccc1F)C(F)(F)F (configuration not stated)
243 to 245 °C | Cc1cc(C)n(-c2ccc(S(N)(=O)=O)cc2)n1
289 to 291 °C | Cc1ccccc1/C=C/c1cc(C(=O)O)c2cc(Br)ccc2n1
216 to 218 °C | Cc1cccc2cc(C(=O)O)oc12
140 to 142 °C | O=C(O)CSc1nccn1-c1cccc(F)c1
144 to 146 °C | CCS(=O)(=O)c1ccc(Cl)c(C(=O)O)c1
179 to 181 °C | O=C(O)[C@H](Cc1ccccc1)N1C(=O)c2ccccc2C1=O
124 to 126 °C | Cc1c(N)cccc1-n1cnnn1
76 to 78 °C | O=[N+]([O-])c1ccccc1NCCO
177 to 179 °C | Cc1csc(SCc2c(C(=O)O)oc3ccccc23)n1
113 to 115 °C | NC(=O)CSc1ccccc1N
250 to 252 °C | O=C(O)C=Cc1cn(-c2ccccc2)nc1-c1ccc2c(c1)OCCO2
